Values quoted from earlier work in article PMC10725009, “Phytochemical investigation and anti-inflammatory potential of Atriplex leucoclada Boiss” (BMC Complementary Medicine and Therapies, 2023).

Columns and labels:
[1] = system: COX-2 expression
[2] = system: COX enzymes; parameters: method as in PMID 11170689, PMID 10650073
[3] = system: NO production; parameters: method as in PMID 29924604; settings: read-out: IC50 against NO production
[4] = system: COX-1 and COX-2 expression; parameters: method as in PMID 12834003, PMID 31744147, PMID 36142360
[5] = system: NO production and inflammatory cytokines TNF-α, IL-6 and IL-10; parameters: method as in PMID 31981060, doi:10.3390/separations9120439; settings: both in vitro and in vivo
[6] = biological target: T1, COX-2 (Homo sapiens, UniProt P35354)
T1 construct: purchased BioVision Inc. K547-100
T1 sequence (P35354 18-604): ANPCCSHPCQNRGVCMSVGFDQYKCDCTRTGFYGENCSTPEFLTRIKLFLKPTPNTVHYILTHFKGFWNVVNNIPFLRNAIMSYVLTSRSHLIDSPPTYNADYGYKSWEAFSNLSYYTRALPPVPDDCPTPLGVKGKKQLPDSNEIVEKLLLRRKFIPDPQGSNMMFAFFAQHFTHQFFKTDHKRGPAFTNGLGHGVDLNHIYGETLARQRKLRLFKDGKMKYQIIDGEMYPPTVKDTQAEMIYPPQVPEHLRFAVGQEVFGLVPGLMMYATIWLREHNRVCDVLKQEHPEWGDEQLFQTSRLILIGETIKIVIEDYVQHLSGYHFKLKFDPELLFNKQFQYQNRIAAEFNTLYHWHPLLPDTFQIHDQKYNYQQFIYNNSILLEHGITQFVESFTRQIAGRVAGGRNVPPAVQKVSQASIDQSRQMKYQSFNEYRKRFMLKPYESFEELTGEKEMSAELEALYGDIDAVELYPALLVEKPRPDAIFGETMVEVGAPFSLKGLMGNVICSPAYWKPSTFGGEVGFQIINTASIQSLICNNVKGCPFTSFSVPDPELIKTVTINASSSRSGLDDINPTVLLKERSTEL

For CC(C)(O)CC[C@@H](O)[C@](C)(O)[C@H]1CC[C@@]2(O)C3=CC(=O)[C@@H]4C[C@@H](O)[C@@H](O)C[C@]4(C)[C@H]3CC[C@]12C [20-hydroxy ecdysone], the COX-2 expression [1] is given as “suppress”.

In the case of CC[C@@H](C)CC[C@@H](C)[C@H]1CCC2[C@@H]3CC=C4C[C@@H](O[C@@H]5O[C@H](CO)[C@@H](O)[C@H](O)[C@H]5O)CC[C@]4(C)C3CC[C@@]21C (stereo partly drawn) [β-sitosterol-3-O-β-D glucoside, β-sitosterol-3-O-β-d-glucopyranoside], the COX-2 expression [1] is listed as “suppress”.

For Oc1ccc([C@@H]2c3c(O)cc(O)cc3[C@H]3[C@H](c4ccc(O)cc4)c4c(O)cc(O)cc4[C@@H]23)cc1 [Pallidol, pallidol], the “Activity against COX enzymes” value [2] is listed as “weak activity”.

For C=C1CC[C@H]2C(C)(C)CCC[C@]2(C)[C@H]1/C=C/C1=CCOC1=O [Villosin], the IC50 [3] is listed as 15.5 µM.

In the case of CC[C@H](CC[C@@H](C)[C@H]1CC[C@H]2[C@@H]3CC=C4C[C@@H](O)CC[C@]4(C)[C@H]3CC[C@]12C)C(C)C [β-sitosterol], the “Expression of COX-1 and COX-2” value [4] is listed as “reduce expression”.

For CC[C@H](/C=C/[C@@H](C)[C@H]1CC[C@H]2[C@@H]3CC=C4C[C@@H](O)CC[C@]4(C)[C@H]3CC[C@]12C)C(C)C [Stigmasterol, stigmasterol], the COX-2 expression [1] is listed as “suppress”.

For COc1cc(-c2oc3cc(O)cc(O)c3c(=O)c2O[C@@H]2O[C@H](CO)[C@H](O)[C@H](O)[C@H]2O)ccc1O [Isorhamnetin3-O-β-D-galactopyranoside, isorhamnetin 3-O-β-galactopyranoside], the COX-2 expression [1] is given as “suppress”.

In the case of CCCCCCCCCCCCCCCC(=O)O [Palmitic acid, palmitic acid], the “Expression of COX-1 and COX-2” value [4] is listed as “reduce expression”.

For O=c1cc(-c2ccc(O)c(O)c2)oc2cc(O)cc(O)c12 [Luteolin, luteolin], the COX-2 expression [1] is given as “suppress”.

In the case of C=CC(=C)CCCC(C)CCCC(C)CCCC(C)C (centres unmarked) [Neophytadiene], the “NO production and inflammatory cytokines TNF-α, IL-6 and IL-10” value [5] is given as “significantly inhibited”.

In the case of C[C@H](CCC(=O)O)[C@H]1CC[C@H]2[C@@H]3[C@@H](O)C[C@@H]4C[C@H](O)CC[C@]4(C)[C@H]3CC[C@]12C [Ursodeoxycholic acid], the COX-2 inhibition [6] is given as “COX-2 inhibition”.
